Test results: patent publication US7713994B2 (Wyeth LLC, priority 2005, dated 2010)
pIC50: −log10 of the molar value.

Target: T1, cyclin D1/cdk 4 enzyme (Homo sapiens, UniProt P11802)
T1 construct: made in house; host or cells: Sf9 insect cells, recombinant baculovirus
Experiment: CDK4 ELISA kinase assay (phospho-Rb ser 795 detection)
Assay type: biochemical
Details: In Vitro Enzyme Assay, cyclin D1/cdk 4, read-out: CDK4 IC50
Description: • 1. High-binding ELISA microtiter plates (Costar) were coated with 40 μl of the kinase substrate (GST fusion of C-terminal fragment of the retinoblastoma susceptibility gene product) diluted to 10 μg/ml in tris-buffered saline (TBS), overnight at 4° C. • 2. Non-specific binding sites were blocked for 1 hour at 4° C. with Superblock in TBS (Pierce), and the plates rinsed with water. • 3. For the screen, 1.5 μl of test compound (200 μg/ml stock in 20% DMSO/20 mM HEPES, pH 7.5) was added to each well. Final dose of the test compound in the assay was 10 ug/ml. […] The kinase reaction (30 μl) was dispensed into each well. Reactions contained 200 μM ATP, 0.5 mg/ml bovine serum albumin (BSA; Sigma), and 0.5 μl partially purified cyclin D1/cdk 4 enzyme*. The enzyme complex is expressed in insect cells (Sf9) infected with recombinant baculovirus and partially purified using ammonium sulfate fractionation. Reaction volumes were adjusted to 30 μl with kinase assay buffer (50 mM HEPES, pH 7.5, 10 mM MgCl2, 5% glycerol, 10 mM 2-mercaptoethanol). • *: For CDK2 assay, 1.0 μl cyclin E/CDK2 enzyme (diluted 1:1000 in kinase assay buffer) was used. The enzyme is isolated from insect cells (Sf9) infected with recombinant baculovirus and partially purified using ammonium sulfate fractionation. For CDK1 assay, 0.08 μl cyclin B/CDK1 enzyme [New England BioLabs; the enzyme is isolated from insect cells (Sf9) infected with recombinant baculovirus carrying human cdc 2 and human cyclin B] was used.
[…] • 5. Plates were incubated at 30° C. for 1 hour. • 6. The reaction mixture was removed by aspiration and replaced with 250 μl TBS containing 0.1% Tween-20 and 5% nonfat dry milk (blocking buffer). The plates were incubated at 4° C. for 1 hour. • 7. The blocking buffer was removed and replaced with 50 μl of the primary antibody [anti-phospho-Rb ser 795 (New England BioLabs) diluted 1:1000 in blocking buffer]. Incubation was at 4° C. for 16-20 hours. • 8. The wells were rinsed 3 times with 250 μl of TBS containing 0.1% Tween-20 followed by the addition of 50 μl of secondary antibody [anti-rabbit IgG conjugated to horseradish peroxidase (Amersham Life Science) diluted 1:1000 in blocking buffer]. • 9. After a 1 hour incubation at room temperature, the wells were rinsed 3 times with 250 μl of TBS/0.1% Tween 20. • 10. TMB (3,3′,5,5′-tetramethylbenzidine dihydrochloride) substrate solution (100 μl; Pierce) was added to each well and the color development reaction allowed to proceed 5-10 minutes at room temperature with shaking. The reaction was stopped by the addition of 2N sulfuric acid (100 μl) and the absorbance values read at 450 nm in a microplate reader (Molecular Devices). Analysis of Results: • 1. The percentage of the absorbance value in wells containing the test compound relative to control wells (no test agent) was determined. • 2. IC50 values of selected compounds were determined from inhibition curves, after subtracting background values (no substrate).

T1 sequence (P11802 whole entry, species assumed): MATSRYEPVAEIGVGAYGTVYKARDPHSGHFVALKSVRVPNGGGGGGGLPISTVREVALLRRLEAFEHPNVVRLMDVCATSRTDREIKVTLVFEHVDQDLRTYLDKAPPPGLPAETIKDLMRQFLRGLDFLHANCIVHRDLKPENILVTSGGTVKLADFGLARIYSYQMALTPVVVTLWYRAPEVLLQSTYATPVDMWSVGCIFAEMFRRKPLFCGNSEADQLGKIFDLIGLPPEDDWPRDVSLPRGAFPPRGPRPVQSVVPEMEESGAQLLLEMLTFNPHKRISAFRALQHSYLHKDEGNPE
T1 sequence (P24385 whole entry partner, species assumed): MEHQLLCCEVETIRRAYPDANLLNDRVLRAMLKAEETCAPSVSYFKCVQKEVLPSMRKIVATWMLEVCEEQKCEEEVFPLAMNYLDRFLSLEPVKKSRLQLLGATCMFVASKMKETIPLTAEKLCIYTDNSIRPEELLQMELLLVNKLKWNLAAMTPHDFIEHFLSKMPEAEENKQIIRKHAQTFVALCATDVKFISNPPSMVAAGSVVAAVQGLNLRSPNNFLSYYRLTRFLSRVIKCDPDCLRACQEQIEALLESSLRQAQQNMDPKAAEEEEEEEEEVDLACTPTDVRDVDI

Compound | pIC50
4-({[6-(3-Cyano-phenyl)-1,3-dioxo-2,3-dihydro-1H-isoquinolin-4-ylidenemethyl]-amino}-methyl)-benzenesulfonamide [Example 756] | 4.70
6-[2-(4-Fluoro-phenyl)-vinyl]-4-{[4-(4-methyl-piperazin-1-yl)-phenylamino]-methylene}-4H-isoquinoline-1,3-dione [Example 731] | 4.34
O=C1NC(=O)c2ccccc2C1=CNc1ccccc1OC(F)(F)F [Example 541, 4-[(2-Trifluoromethoxy-phenylamino)-methylene]-4H-isoquinoline-1,3-dione] | 4.43
O=C1NC(=O)c2ccccc2C1=CNc1cccc(C(=O)O)c1 [Example 542, 3-[(1,3-Dioxo-2,3-dihydro-1H-isoquinolin-4-ylidenemethyl)-amino]-benzoic acid] | 4.46
O=C1NC(=O)c2ccccc2C1=CNCCc1ccc(O)c(O)c1 [Example 544, 4-{[2-(3,4-Dihydroxy-phenyl)-ethylamino]-methylene}-4H-isoquinoline-1,3-dione] | 4.79
O=C(O)CSc1ccc(NC=C2C(=O)NC(=O)c3ccccc32)cc1 [Example 548, {4-[(1,3-Dioxo-2,3-dihydro-1H-isoquinolin-4-ylidenemethyl)-amino]-phenylsulfanyl}-acetic acid] | 4.45
O=C1NC(=O)c2ccccc2C1=CNc1ccccc1-c1nc2ccccc2[nH]1 [Example 551, 4-{[2-(1H-Benzoimidazol-2-yl)-phenylamino]-methylene}-4H-isoquinoline-1,3-dione] | 4.83
CC(=O)N(C)c1ccc(NC=C2C(=O)NC(=O)c3ccccc32)cc1 [Example 554, N-{4-[(1,3-Dioxo-2,3-dihydro-1H-isoquinolin-4-ylidenemethyl)-amino]-phenyl}-N-methyl-acetamide] | 4.44
O=C(O)C=Cc1ccc(NC=C2C(=O)NC(=O)c3ccccc32)cc1 [Example 557, 3-{4-[(1,3-Dioxo-2,3-dihydro-1H-isoquinolin-4-ylidenemethyl)-amino]-phenyl}-acrylic acid] | 4.71
O=C(O)CCCc1ccc(NC=C2C(=O)NC(=O)c3ccccc32)cc1 [Example 558, 4-{4-[(1,3-Dioxo-2,3-dihydro-1H-isoquinolin-4-ylidenemethyl)-amino]-phenyl}-butyric acid] | 4.56
O=C1NC(=O)c2ccccc2C1=CNc1ccc(C(=O)O)c(O)c1 [Example 560, 4-[(1,3-Dioxo-2,3-dihydro-1H-isoquinolin-4-ylidenemethyl)-amino]-2-hydroxy-benzoic acid] | 4.76
O=C1NC(=O)c2ccccc2C1=CNc1ccc(O)cc1C(=O)O [Example 562, 2-[(1,3-Dioxo-2,3-dihydro-1H-isoquinolin-4-ylidenemethyl)-amino]-5-hydroxy-benzoic acid] | 4.80
O=C1NC(=O)c2ccccc2C1=CNC(Cc1ccc(O)c(O)c1)C(=O)O (centres unmarked) [Example 566, 3-(3,4-Dihydroxy-phenyl)-2-[(1,3-dioxo-2,3-dihydro-1H-isoquinolin-4-ylidenemethyl)-amino]-propionic acid] | 4.53
O=C1NC(=O)c2ccccc2C1=CNc1ccc(O)cc1O [Example 568, 4-[(2,4-Dihydroxy-phenylamino)-methylene]-4H-isoquinoline-1,3-dione] | 4.77
O=C1NC(=O)c2ccccc2C1=CNc1cc(Cl)c([N+](=O)[O-])cc1O [Example 570, 4-[(5-Chloro-2-hydroxy-4-nitro-phenylamino)-methylene]-4H-isoquinoline-1,3-dione] | 4.66
O=C1NC(=O)c2ccccc2C1=CNc1ccc(N2CCN(CCN3CCOCC3)CC2)cc1 [Example 571, 4-({4-[4-(2-Morpholin-4-yl-ethyl)-piperazin-1-yl]-phenylamino}-methylene)-4H-isoquinoline-1,3-dione] | 4.47
O=C1NC(=O)c2ccccc2C1=CNc1ccc(N2CCN(CCN3CCCC3)CC2)cc1 [Example 572, 4-({4-[4-(2-Pyrrolidin-1-yl-ethyl)-piperazin-1-yl]-phenylamino}-methylene)-4H-isoquinoline-1,3-dione] | 4.43
NCc1cccc(CNC=C2C(=O)NC(=O)c3ccccc32)c1 [Example 578, 4-[(3-Aminomethyl-benzylamino)-methylene]-4H-isoquinoline-1,3-dione] | 4.63
O=C1NC(=O)c2ccccc2C1=CNCc1cccc(NS(=O)(=O)c2cccs2)c1 [Example 579, Thiophene-2-sulfonic acid (3-{[(1,3-dioxo-2,3-dihydro-1H-isoquinolin-4-ylidenemethyl)-amino]-methyl}-phenyl)-amide] | 4.69
CC(C)S(=O)(=O)Nc1cccc(CNC=C2C(=O)NC(=O)c3ccccc32)c1 [Example 580, Propane-2-sulfonic acid (3-{[(1,3-dioxo-2,3-dihydro-1H-isoquinolin-4-ylidenemethyl)-amino]-methyl}-phenyl)-amide] | 4.31
CS(=O)(=O)Nc1cccc(CNC=C2C(=O)NC(=O)c3ccccc32)c1 [Example 581, N-(3-{[(1,3-Dioxo-2,3-dihydro-1H-isoquinolin-4-ylidenemethyl)-amino]-methyl}-phenyl)-methanesulfonamide] | 4.63

Further compounds by rising pIC50, results first:

pIC50 | Compound
4.32 | Cc1cc(NS(=O)(=O)c2ccc(NC=C3C(=O)NC(=O)c4ccccc43)cc2)no1 [Example 556, 4-[(1,3-Dioxo-2,3-dihydro-1H-isoquinolin-4-ylidenemethyl)-amino]-N-(5-methyl-isoxazol-3-yl)-benzenesulfonamide]
4.34 | COc1ccc(NC=C2C(=O)NC(=O)c3ccccc32)cc1O [Example 561, 4-[(3-Hydroxy-4-methoxy-phenylamino)-methylene]-4H-isoquinoline-1,3-dione]
4.37 | CCN(CC)CCNC(=O)c1ccc(NC=C2C(=O)NC(=O)c3ccccc32)cc1 [Example 543, N-(2-Diethylamino-ethyl)-4-[(1,3-dioxo-2,3-dihydro-1H-isoquinolin-4-ylidenemethyl)-amino]-benzamide]
4.40 | Cc1nnc(NS(=O)(=O)c2ccc(NC=C3C(=O)NC(=O)c4ccccc43)cc2)s1 [Example 549, 4-[(1,3-Dioxo-2,3-dihydro-1H-isoquinolin-4-ylidenemethyl)-amino]-N-(5-methyl-[1,3,4]thiadiazol-2-yl)-benzenesulfonamide]
4.42 | O=C1NC(=O)c2ccccc2C1=CNc1c(O)cccc1O [Example 565, 4-[(2,6-Dihydroxy-phenylamino)-methylene]-4H-isoquinoline-1,3-dione]
4.49 | O=C1NC(=O)c2ccccc2C1=CNNc1cccc(C(=O)O)c1 [Example 552, 3-[N′-(1,3-Dioxo-2,3-dihydro-1H-isoquinolin-4-ylidenemethyl)-hydrazino]-benzoic acid]
4.51 | Nc1cccc(CNC=C2C(=O)NC(=O)c3ccccc32)c1 [Example 573, 4-[(3-Amino-benzylamino)-methylene]-4H-isoquinoline-1,3-dione]
4.63 | Cc1nc(NS(=O)(=O)c2ccc(NC=C3C(=O)NC(=O)c4ccccc43)cc2)oc1C [Example 553, N-(4,5-Dimethyl-oxazol-2-yl)-4-[(1,3-dioxo-2,3-dihydro-1H-isoquinolin-4-ylidenemethyl)-amino]-benzenesulfonamide]
4.70 | O=C(O)C(=O)Nc1ccc(NC=C2C(=O)NC(=O)c3ccccc32)cc1 [Example 546, N-{4-[(1,3-Dioxo-2,3-dihydro-1H-isoquinolin-4-ylidenemethyl)-amino]-phenyl}-oxalamic acid]
4.71 | NS(=O)(=O)c1ccc(CNC=C2C(=O)NC(=O)c3ccccc32)cc1 [Example 540, 4-{[(1,3-Dioxo-2,3-dihydro-1H-isoquinolin-4-ylidenemethyl)-amino]-methyl}-benzenesulfonamide]
4.71 | O=C1NC(=O)c2ccccc2C1=CNc1ccc(O)cc1 [Example 559, 4-[(4-Hydroxy-phenylamino)-methylene]-4H-isoquinoline-1,3-dione]
